{
  "source": "patent US20140377379A1",
  "about": "“METHOD FOR PROGNOSING THE AGE-AT-ONSET OF HUNTINGTON'S DISEASE” (Institut National de la Sante et de la Recherche Medicale …, priority 2010, published 2014)",
  "key": {"[1]": {"test_system": "128Q nematodes (expanded polyQ in touch receptor neurons)", "assay": "Touch test (response to light touch at the tail) in 128Q nematodes", "type": "in vivo, C. elegans", "protocol": "(§1) The wild-type strain of C. elegans used was Bristol N2. Standard methods of culturing and handling worms were used. All strains were scored at 20° C. Touch tests, scoring of PLM cell processes, drug response assays and quantitative Real-Time PCR were performed as previously described (Parker et al. 2005 Nat Genet. 37:349-350). Western analysis was performed using standard protocols and htt fusion proteins detected with the GFP antibody ab6556 (Abcam). Mutations and transgenes used in this study were: aak-2(ok524), bar-1(ga80), cfz-2(ok 1201), cst-1(tm1900), ctl-2(ok1137), cwn-1(ok546), cwn-2(ok895), daf-2(e1370), daf-16(mgD150), dhc-1(or195), dnc-1(or 404), egl-20(n585), ftt-2(n4426), geln3[sir-2.1(+)], igls1[mec-3::htt57Q128::CFP;mec-7::YFP;lin-15(+)], igls245[mec-3::htt57Q19::CFP; mec-7::YFP; lin-15(+)]. lin-17(n671), lin-44(n1792), mig-1(e1787), pop-1(q624), rrf-3(pk1426), sir-2.1(ok434), sod-3(gk235) and ucp-4(ok 195). […]\n(§2) Touch tests involved scoring for the response to light touch at the tail by using a fine hair. […] The responses were recorded for every animal such that, for example, 3 responses out of 10 at the tail is given as 30% responsiveness, and the mean values for responsiveness were retained for comparison of nematode groups."}, "[2]": {"test_system": "19Q nematodes (normal polyQ)", "assay": "Touch test in 19Q control nematodes", "type": "in vivo, C. elegans", "protocol": "as §1, §2"}, "[3]": {"test_system": "PLM cells of 128Q animals", "assay": "Scoring of PLM cell processes (axonal swelling)", "type": "in vivo, C. elegans", "conditions": "versus DMSO controls", "protocol": "as §1, with “195). All strains were obtained from the C. elegans Genetics Center (University of Minnesota, Minneapolis) except for cst-1(tm1900) which was from the National Bioresource Project for the Nematode (Tokyo, Japan). For strain construction with polyQ transgenes, mutants were verified by visible phenotypes, PCR analysis for deletion mutants, sequencing for point mutations or a combination thereof.” for “195).”"}, "109Q/109Q striatal cells": {"test_system": "109Q/109Q striatal cells", "assay": "Cell death assay in mutant htt striatal cells from HdhQ111 mice", "type": "cell-based, mouse", "protocol": "Cell death assays for HdhQ111 mouse striatal cells expressing full-length htt with either wild-type (7Q/7Q) or mutant (109Q/109Q) polyglutamines were performed as previously described (Arango et al. 2006 Neurosci 26:4649-59). jetPEI was used for transfection with cDNA and jetSI-ENDO for siRNA assays as indicated by the manufacturer (PolyPlus Transfection). siRNA oligos were obtained from Clontech (β-catenin) and QIAGEN (SIRT1, SIRT2, SIRT3, UCP2 and UCP4). Mixes of 3-4 different siRNA sequences per gene (25 or 33 nM) were systematically tested for modulation of cell survival and siRNA target gene expression, followed by the evaluation of individual siRNA sequences at optimal concentration (25-100 nM). […] The siRNA sequences shown in figures are as it follows: β-catenin siRNA, 5′-[…]-3′ (100 nM) (SEQ ID NO:41); FoxO3a siRNA 5′-[…]-3′ (SEQ ID NO:42) (100 nM); SIRT1 siRNA, 5′-[…]-3′ (SEQ ID NO:43) (25 nM); SIRT2 siRNA 5′-[…]-3′ (SEQ ID NO:44) (25 nM); SIRT3 siRNA, 5′-[…]-3′ (SEQ ID NO:45) (25 nM); UCP2 siRNA, 5′-[…]-3′ (SEQ ID NO:46) (33 nM), and UCP4 siRNA sequences 5′-[…]-3′ (SEQ ID NO:47) (33 nM). The constructs encoding an active variant of SIRT1 (2 kb cDNA) lacking an internal segment in the N-terminus and full length FoxO3a were pcDNA3.1-sirt1-Flag and pcDNA3.1-FoxO3a-HA, respectively. Cells were subjected to DAPI staining and cell death was scored 48 hours after cell transfection by counting picnotic versus normal nuclei in DAPI- and JetSI-ENDO-positive cells. Cytoplasmic and nuclear proteins were extracted as previously described (Arango et al. 2006 Neurosci 26:4649-59), separated by SDS-PAGE and analyzed by Western blotting using the following primary antibodies: Mouse anti-SIRT1 (Upstate, 1:1000), mouse anti-SIRT2 (Santa Cruz, 1:100), rabbit anti-SIRT-3 (Abgent, 1:100), rabbit-anti-β-catenin (Cell Signaling, 1:5000), mouse anti-FoxO3a (Cell Signaling, 1:1000), goat-anti-UCP2 (Santa Cruz, dilution), rabbit-anti-UCP4 (Abcam, 1:25), mouse anti-actin (Invitrogen, 1:2000), anti-htt (4C8, Chemicon, 1:5000). Secondary antibodies were goat-anti-mouse IgG HRP-conjugated and goat-anti-rabbit IgG HRP-conjugated (Biorad). Proteins were detected using ECL+ and evaluated by densitometry. Quantitative Real-Time PCR experiments were performed as described in the Supporting Information/Materials and Methods. Chemicals were either purchased from Sigma (Resveratrol) and Calbiochem (B10, LiCl)."}, "mutant htt": {"test_system": "mutant htt", "assay": "Western blot of mutant htt in 109Q/109Q cells", "type": "cell-based, mouse", "protocol": "(§3) Cell death assays for HdhQ111 mouse striatal cells expressing full-length htt with either wild-type (7Q/7Q) or mutant (109Q/109Q) polyglutamines were performed as previously described (Arango et al. 2006 Neurosci 26:4649-59). jetPEI was used for transfection with cDNA and jetSI-ENDO for siRNA assays as indicated by the manufacturer (PolyPlus Transfection). siRNA oligos were obtained from Clontech (β-catenin) and QIAGEN (SIRT1, SIRT2, SIRT3, UCP2 and UCP4). […] Cells were subjected to DAPI staining and cell death was scored 48 hours after cell transfection by counting picnotic versus normal nuclei in DAPI- and JetSI-ENDO-positive cells. Cytoplasmic and nuclear proteins were extracted as previously described (Arango et al. 2006 Neurosci 26:4649-59), separated by SDS-PAGE and analyzed by Western blotting using the following primary antibodies: Mouse anti-SIRT1 (Upstate, 1:1000), mouse anti-SIRT2 (Santa Cruz, 1:100), rabbit anti-SIRT-3 (Abgent, 1:100), rabbit-anti-β-catenin (Cell Signaling, 1:5000), mouse anti-FoxO3a (Cell Signaling, 1:1000), goat-anti-UCP2 (Santa Cruz, dilution), rabbit-anti-UCP4 (Abcam, 1:25), mouse anti-actin (Invitrogen, 1:2000), anti-htt (4C8, Chemicon, 1:5000). […] Proteins were detected using ECL+ and evaluated by densitometry. Quantitative Real-Time PCR experiments were performed as described in the Supporting Information/Materials and Methods. […]"}, "UCP4 mRNA": {"test_system": "UCP4 mRNA", "assay": "Quantitative RT-PCR of UCP4 mRNA in striatal cells", "type": "cell-based, mouse", "conditions": "for UCP4 mRNA levels: 109Q/109Q cells, qRT-PCR", "protocol": "as §3, with “UCP4). Mixes of 3-4 different siRNA sequences per gene (25 or 33 nM) were systematically tested for modulation of cell survival and siRNA target gene expression, followed by the evaluation of individual siRNA sequences at optimal concentration (25-100 nM).” for “UCP4).”\nQuantitative RT-PCR was performed on RNA extracted from 109Q/109Q mouse striatal cells, transfected with the appropriate siRNAs, to assess gene silencing efficiency. […]"}, "7Q/7Q striatal cells": {"test_system": "7Q/7Q striatal cells", "assay": "Cell death assay in normal htt striatal cells", "type": "cell-based, mouse", "conditions": "siRNA", "protocol": "as §3"}, "β-catenin": {"test_system": "β-catenin", "assay": "Western blot of β-catenin in 109Q/109Q cells", "type": "cell-based, mouse", "protocol": "as §3"}, "UCP2 mRNA": {"test_system": "UCP2 mRNA", "assay": "Quantitative RT-PCR of UCP2 mRNA in striatal cells", "type": "cell-based, mouse", "protocol": "as §3"}, "[4]": {"test_system": "reactive oxygen species (ROS) levels in striatal cells", "assay": "ROS levels in striatal cells", "type": "cell-based, mouse"}, "[5]": {"conditions": "siRNA 25-100 nM, cell death scored 48 hours after transfection, versus untreated"}},
  "note": "“Also recorded” adds a separate entry of the source.",
  "data": [
    {"compound": "O=C1Nc2cc(Br)ccc2/C1=C1/Nc2ccccc2/C1=N\\O", "note": "[BIO, 6-bromoindirubin-3′-oxime]", "values": [
      {"measurement": "neuronal dysfunction / expanded polyQ neurotoxicity (loss of response to touch)", "setting": "[1]; 128Q nematodes, versus DMSO or untreated […]Q controls", "value": "rescues expanded polyQ neurotoxicity; also recorded: reduced neuronal dysfunction in 1280 animals"},
      {"measurement": "BIO rescuing activity in 128Q animals mutant for FoxO network genes", "setting": "[1]; 128Q, mutants for daf-16, sir-2.1, bar-1 and ucp-4", "value": "lost and in a bar-1 dependent manner and no effect in mutants for sir-2.1, daf-16 and ucp-4"},
      {"measurement": "effect on normal polyQ (19Q) controls, touch response", "setting": "[2]", "value": "no effect on 19Q controls"},
      {"measurement": "axonal swelling (AxSw)", "setting": "[3]", "value": "reduced AxSw in PLM cells of 128Q animals; also recorded: reduced axonal swelling"},
      {"measurement": "survival effect of BIO combined with β-catenin siRNA", "setting": "109Q/109Q striatal cells; BIO 0.5 μM + β-catenin siRNA, 109Q/109Q cells", "value": "lost by β-catenin siRNA"},
      {"measurement": "survival of 109Q/109Q cells", "setting": "109Q/109Q striatal cells; BIO 0.5 μM, cell death induced by serum deprivation, versus DMSO controls", "value": "enhanced the survival of 109Q/109Q cells"}
    ]},
    {"compound": "[Cl-].[Li+]", "note": "[Lithium chloride]", "values": [
      {"measurement": "effect on normal polyQ (19Q) controls, touch response", "setting": "[2]", "value": "no effects on 19Q controls"}
    ]},
    {"compound": "UCP4 siRNA: siRNA 5′-GCCTATAGTATGTGCTTAATT-3′ (SEQ ID NO:47) (33 nM) (listed as DNA, chemistry not given here)", "values": [
      {"measurement": "survival of 109Q/109Q cells", "setting": "109Q/109Q striatal cells; [5]", "value": "increased the survival of 109Q/109Q cells"},
      {"measurement": "mutant htt expression", "setting": "mutant htt", "value": "unchanged; also recorded: no change in htt expression"},
      {"measurement": "UCP4 mRNA levels", "setting": "UCP4 mRNA", "value": "decreased UCP4 mRNA levels"}
    ]},
    {"compound": "β-catenin siRNA: siRNA 5′-GGCTTTTCCCAGTCCTTCATT-3′ (100 nM) (SEQ ID NO:41) (listed as DNA, chemistry not given here)", "values": [
      {"measurement": "survival of 109Q/109Q cells", "setting": "109Q/109Q striatal cells; [5]", "value": "reduced the survival of mutant htt striatal cells; also recorded: decreased the survival of 109Q/109Q cells"},
      {"measurement": "survival of normal htt (7Q/7Q) cells", "setting": "7Q/7Q striatal cells", "value": "no effects in normal htt cells"},
      {"measurement": "β-catenin expression", "setting": "β-catenin", "value": "β-catenin was reduced"},
      {"measurement": "mutant htt expression", "setting": "mutant htt", "value": "unchanged; also recorded: no change in htt expression"},
      {"measurement": "UCP2 expression", "setting": "UCP2 mRNA; 7Q/7Q cells", "value": "No effect"},
      {"measurement": "UCP2 mRNA levels", "setting": "UCP2 mRNA; 109Q/109Q cells, qRT-PCR", "value": "downregulated; also recorded: decreased UCP2 mRNA levels"},
      {"measurement": "UCP4 expression", "setting": "UCP4 mRNA; 7Q/7Q cells", "value": "No effect"},
      {"measurement": "UCP4 mRNA levels", "setting": "UCP4 mRNA", "value": "upregulated"},
      {"measurement": "ROS levels", "setting": "[4]; mutant htt (109Q/109Q) striatal cells, versus untreated", "value": "increased reactive oxygen species (ROS) levels in mutant htt striatal cells"},
      {"measurement": "ROS levels", "setting": "[4]; normal htt (7Q/7Q) cells", "value": "no effects in normal htt cells"}
    ]}
  ]
}
